Experimental data reported in paper PMC12320831, “Synthesis and Biological Evaluation of New Chalcogen Semicarbazone (S, Se) and Their Azole Derivatives against Chagas Disease” (Journal of Medicinal Chemistry, 2024).
Counter-ions that a name gives are not always drawn. Like-named read-outs stand apart in the source and are kept apart here.

Legend:
T. cruzi CAI/72 strain = assay: Antiparasitic activity in C2C12 cells infected with T. cruzi CAI/72 (image-based assay); format: cell-based; details: Trypanosoma cruzi
Protocol: Antiparasitic activity and cytotoxicity of compounds were determined as described before (da Silva et al., Boudreau et al.). Mouse myoblasts cell line C2C12 (ATCCCRL-1772), were maintained in high glucose (4.5 g/L glucose) Dulbecco’s modified Eagle’s medium (DMEM Gibco), supplemented with 1% penicillin–streptomycin 10,000 U/mL (Gibco) and 5% fetal bovine serum (FBS, Sigma-Aldrich) at 37 °C with 5% CO2. parasites (CAI/72 strain, DTU TcI) were maintained by weekly coinfection with C2C12 cells. For all activity assays, C2C12 cells were infected at a 10:1 parasite-to-cell ratio with culture-derived trypomastigotes, which were harvested from the supernatant of infected C2C12 cells. After adding compounds to 384-well black clear-bottom plates (Greiner cat. no. 781091), trypomastigotes (7000 parasites/well) and C2C12 cells (700 cells/well) were seeded in a total volume of 50 μL of DMEM per well in the 384-well plates. Compounds were first tested at 10 μM. […] Plates were imaged with the automated ImageXpress MicroXL microscope (Molecular Devices) and analyzed by MetaXpress software (Molecular Devices) using a custom module optimized for this assay. Infection levels (parasites per host cell) were normalized to the positive control (40 μM BNZ) and negative control (DMSO). Antiparasitic activity (EC50) ± standard deviation (SD) and host cell cytotoxicity (C2C12 viability) values were determined from the DRC using Prism software (GraphPad Software, La Jolla, CA). Every assay has three biological replicates, each in triplicates (n = 9 data points).

[1] = Host cell cytotoxicity (C2C12 viability); format: cell-based, Mouse; details: mouse; for viability at 48 h, 10 µM: < 50% viability considered cytotoxic
Protocol: Antiparasitic activity and cytotoxicity of compounds were determined as described before (da Silva et al., Boudreau et al.). Mouse myoblasts cell line C2C12 (ATCCCRL-1772), were maintained in high glucose (4.5 g/L glucose) Dulbecco’s modified Eagle’s medium (DMEM Gibco), supplemented with 1% penicillin–streptomycin 10,000 U/mL (Gibco) and 5% fetal bovine serum (FBS, Sigma-Aldrich) at 37 °C with 5% CO2. parasites (CAI/72 strain, DTU TcI) were maintained by weekly coinfection with C2C12 cells. For all activity assays, C2C12 cells were infected at a 10:1 parasite-to-cell ratio with culture-derived trypomastigotes, which were harvested from the supernatant of infected C2C12 cells. After adding compounds to 384-well black clear-bottom plates (Greiner cat. no. 781091), trypomastigotes (7000 parasites/well) and C2C12 cells (700 cells/well) were seeded in a total volume of 50 μL of DMEM per well in the 384-well plates. Compounds were first tested at 10 μM. […] After 48 h at 37 °C and 5% CO2, plates were fixed with 4% formaldehyde solution for at least 1 h, washed with 1× PBS, and stained with 5 μg/mL of 4′,6-diamidino-2-phenylindole (DAPI) for at least 1 h prior to reading. Plates were imaged with the automated ImageXpress MicroXL microscope (Molecular Devices) and analyzed by MetaXpress software (Molecular Devices) using a custom module optimized for this assay. Infection levels (parasites per host cell) were normalized to the positive control (40 μM BNZ) and negative control (DMSO). Antiparasitic activity (EC50) ± standard deviation (SD) and host cell cytotoxicity (C2C12 viability) values were determined from the DRC using Prism software (GraphPad Software, La Jolla, CA). Every assay has three biological replicates, each in triplicates (n = 9 data points).

recombinant Cz (cruzain) = target: T1, recombinant Cz (cruzain) (Trypanosoma cruzi, UniProt P25779); assay: biochemical; details: read-out: Cz inhibition (%), 10 µM
T1 construct: Cz was expressed and purified as described in da Silva et al; made in house
Protocol: The screening assay was performed using 1 nM of Cz diluted in 0.1 M sodium acetate pH 5.5, 1 mM dithiothreitol (DTT), and 0.01% Triton X-100. Cz was expressed and purified as described in da Silva et al. The reaction starts after 10 min incubating the enzyme with the compounds (10 μM), when adding 2.5 μM of the substrate Z-FR-AMC final concentration (Z-Phe-Arg-amidomethylcoumarin, Sigma-Aldrich, C9521) diluted in the same assay buffer (final volume of 30 μL). The experiment was performed for 10 min. […] The DRC was performed with at least nine different concentrations of the inhibitors, diluted by 2-fold serial dilution, ranging from […] to 10 μM.
All experiments were accomplished in a 384-well black microplate, using a Synergy HTX (Biotek) plate reader at 25 °C with absorption/emission wavelengths of 360/460 nm. All assays were performed in triplicate wells and DMSO was used as a vehicle control. Enzymatic activity was measured and normalized to DMSO controls, and the inhibitor E-64 (10 μM) was used as a positive control for all assays. All experiments were performed in triplicates, with at least two independent assays (n = 6 data points). IC50 values were determined through nonlinear regression. Obtained data were treated and analyzed using GraphPad Prism 9.0 (GraphPad Software, La Jolla, California).

[2] = 10 µM, C2C12 infected cells, read-out: Anti-Tc CAI/72 activity (%)
[3] = C2C12 myoblast cells infected with trypomastigotes
[4] = C2C12, read-out: Anti-Tc CAI/72 activity (%)

T1 sequence (P25779 123-337 limits assumed): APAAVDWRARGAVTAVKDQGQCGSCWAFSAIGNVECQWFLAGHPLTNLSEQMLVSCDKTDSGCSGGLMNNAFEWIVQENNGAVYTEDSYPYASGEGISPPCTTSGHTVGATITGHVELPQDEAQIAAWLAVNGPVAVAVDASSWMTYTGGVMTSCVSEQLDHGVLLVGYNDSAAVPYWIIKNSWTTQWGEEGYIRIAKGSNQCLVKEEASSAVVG

SMILES	inhibition at 10 µM (T. cruzi CAI/72 strain; [2]) [%]	viability at 48 h, 10 µM [1, 3] [%]	inhibition at 10 µM (recombinant Cz (cruzain)) [%]	viability at 48 h, 10 µM [1] [%]	inhibition at 10 µM (T. cruzi CAI/72 strain; [4]) [%]	EC50 (T. cruzi CAI/72 strain; C2C12, 48 h, read-out: EC50 Tc CAI/72, intracellular amastigotes in C2C12 cells, 48 h, mean of three experiments in triplicate (n = 9) ± SD) [µM]	CC50 at 48 h ([1]; viability calculated at 10 μM) [µM]
C/C(=N\Nc1nc(C)cs1)c1ccc(Br)cc1 [Compound S2f, (E)-2-(2-(1-(4-Bromophenyl)ethylidene)hydrazineyl)-4-methylthiazole hydrochloride]	1.1	> 100	53				
COc1cccc(/C(C)=N/Nc2nc(C)cs2)c1 [Compound S2g, (E)-2-(2-(1-(3-Methoxyphenyl)ethylidene)hydrazineyl)-4-methylthiazole hydrochloride]	40.6	> 100	45.1				
C/C(=N\Nc1nc(C)cs1)c1ccc(F)c(F)c1 [Compound S2j, (E)-2-(2-(1-(3,4-Difluorophenyl)ethylidene)hydrazineyl)-4-methylthiazole Hydrochloride]	28.3	> 100	79.4				
COc1ccc(/C(C)=N/Nc2nc(C)cs2)c(OC)c1 [Compound S2k, (E)-2-(2-(1-(2,4-Dimethoxyphenyl)ethylidene)hydrazineyl)-4-methylthiazole Hydrochloride]	46	> 100	34.2				
C/C(=N\Nc1nc(C)cs1)c1ccsc1 [Compound S2l, (E)-4-Methyl-2-(2-(1-(thiophen-3-yl)ethylidene)hydrazineyl)thiazole Hydrochloride]	19.5	> 100	31.6				
C/C(=N\Nc1nc(C)cs1)c1csc2ccccc12 [Compound S2o, (E)-2-(2-(1-(Benzo[b]thiophen-3-yl)ethylidene)hydrazineyl)-4-methylthiazole Hydrochloride]	45.7	> 100	27.9				
C/C(=N\Nc1nc(C)cs1)c1cc2ccccc2o1 [Compound S2p, (E)-2-(2-(1-(Benzofuran-2-yl)ethylidene)hydrazineyl)-4-methylthiazole Hydrochloride]	31.4	> 100	74.3				
C/C(=N\Nc1nc(C)cs1)C12CC3CC(CC(C3)C1)C2 [Compound S2q, 2-(2-((E)-1-((3s)-Adamantan-1-yl)ethylidene)hydrazineyl)-4-methylthiazole Hydrochloride]	40.5	> 100	30.5				
C/C(=N\NC(N)=[Se])c1ccc(C)cc1 [Se1a, (E)-2-(1-(4-Tolyl)ethylidene)hydrazine-1-carboselenoamide]	21.6		98.2	34.1			
COc1ccc(/C(C)=N/NC(N)=[Se])cc1 [Se1b, (E)-2-(1-(4-Methoxyphenyl)ethylidene)hydrazine-1-carboselenoamide]			98.9	40.9	30		
COc1cccc(/C(C)=N/NC(N)=[Se])c1 [Se1g, (E)-2-(1-(3-Methoxyphenyl)ethylidene)hydrazine-1-carboselenoamide]			101	31.1	7.03		
C/C(=N\NC(N)=[Se])c1ccsc1 [Se1l, (E)-2-(1-(Thiophen-3-yl)ethylidene)hydrazine-1-carboselenoamide]			90.1	38.1	30.5		
C/C(=N\NC(N)=[Se])c1csc2ccccc12 [Se1o, (E)-2-(1-(Benzo[b]thiophen-3-yl)ethylidene)hydrazine-1-carboselenoamide]			93.7	31.4	4.32		
C/C(=N\NC(N)=[Se])c1cc2ccccc2o1 [Se1p, (E)-2-(1-(Benzofuran-2-yl)ethylidene)hydrazine-1-carboselenoamide]			102	39.4	28.8		
C/C(=N\NC(N)=[Se])C12CC3CC(CC(C3)C1)C2 [Se1q, (E)-2-(1-((3r,5r,7r)-Adamantan-1-yl)ethylidene)hydrazine-1-carboselenoamide]			83.8	78.6	16.2		
C/C(=N\Nc1nc(C)c[se]1)c1ccc(C)cc1 [Se2a, (E)-4-Methyl-2-(2-(1-(4-tolyl)ethylidene)hydrazineyl)-1,3-selenazole Hydrochloride]			28.6	91.9	11.1		
COc1ccc(/C(C)=N/Nc2nc(C)c[se]2)cc1 [Se2b, (E)-2-(2-(1-(4-Methoxyphenyl)ethylidene)hydrazineyl)-4-methyl-1,3-selenazole Hydrochloride]			21.6	94	12.1		
C/C(=N\Nc1nc(C)c[se]1)c1ccc(C(F)(F)F)cc1 [Se2d, (E)-4-Methyl-2-(2-(1-(4-(trifluoromethyl)phenyl)ethylidene)hydrazineyl)-1,3-selenazole Hydrochloride]			95.2	96.1	27.9		
C/C(=N\Nc1nc(C)c[se]1)c1ccc(Br)cc1 [Se2f, (E)-2-(2-(1-(4-Bromophenyl)ethylidene)hydrazineyl)-4-methyl-1,3-selenazole Hydrochloride]			98.6	87.7	18.3		
COc1cccc(/C(C)=N/Nc2nc(C)c[se]2)c1 [Se2g, (E)-2-(2-(1-(3-Methoxyphenyl)ethylidene)hydrazineyl)-4-methyl-1,3-selenazole Hydrochloride]			62.9	> 100	55.1	2.67 ± 1.13	> 10
C/C(=N\Nc1nc(C)c[se]1)c1ccc(F)c(F)c1 [Se2j, (E)-2-(2-(1-(3,4-Difluorophenyl)ethylidene)hydrazineyl)-4-methyl-1,3-selenazole Hydrochloride]			102	38.3	18.7		
C/C(=N\Nc1nc(C)c[se]1)c1csc2ccccc12 [Se2o, (E)-2-(2-(1-(Benzo[b]thiophen-3-yl)ethylidene)hydrazineyl)-4-methyl-1,3-selenazole Hydrochloride]			101	> 100	42.3		
C/C(=N\Nc1nc(C)c[se]1)c1cc2ccccc2o1 [Se2p, (E)-2-(2-(1-(Benzofuran-2-yl)ethylidene)hydrazineyl)-4-methyl-1,3-selenazole Hydrochloride]			98.5	> 100	26.6		
